These results are taken from patent publication US8163766B2, “Beta-secretase modulators and methods of use” (Amgen Inc., priority 2005, dated 2012).

A value given as a limit tells only on which side of the number the result lay.

This test has as its system Aβ 40 in conditioned media of cells stably expressing Amyloid Precursor Protein (APP). The experiment in a line: BACE Cell-Based Assay (Aβ40 in conditioned medium, sandwich ELISA). Conditions: 24 hours of incubation with the test compounds, Aβ 40 by sandwich ELISA, read-out: IC50 values in the cell-based assay (inhibition of Aβ 40). In outline:
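IC50 derived from Aβ40 reduction in supernatants, quantified by europium time-resolved fluorescence ELISA with pAb40/biotin-6E10 antibodies incubated at 4°C. Cells stably expressing APP received compound for 24 h, ten concentrations from 100 μM or 10 μM top, final DMSO 0.1%.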
A word on the IC50: it is the concentration at which inhibition is half-maximal. `C[C@@H](N[C@H]1CC(C)(C)Oc2ccc(Br)cc21)[C@H](O)[C@H](Cc1ccccc1)NC(=O)c1cc(-c2ccccn2)c(=O)n(C2CCCC2)c1` [Example 480, N-((1S,2S,3R)-3-(((4S)-6-bromo-2,2-dimethyl-3,4-dihydro-2H-chromen-4-yl)amino)-2-hydroxy-1-(phenylmethyl)butyl)-1′-cyclopentyl-2′-oxo-1′,2′-dihydro-2,3′-bipyridine-5′-carboxamide]: the concentration for half-maximal inhibition (IC50) is no more than 5 µM.
In the case of `CC1(C)C[C@@H](NC[C@@H](O)[C@H](Cc2ccccc2)NC(=O)c2cc(-c3ccccn3)c(=O)n(C3CCCC3)c2)c2cc(Br)ccc2N1` [Example 481, N-((1S,2R)-3-(((4R)-6-bromo-2,2-dimethyl-1,2,3,4-tetrahydro-4-quinolinyl)amino)-2-hydroxy-1-(phenylmethyl)propyl)-1′-cyclopentyl-2′-oxo-1′,2′-dihydro-2,3′-bipyridine-5′-carboxamide] it was no more than 5 µM; in that of `CC1(C)C[C@H](NC[C@@H](O)[C@H](Cc2ccccc2)NC(=O)c2cc(-c3ccccn3)c(=O)n(C3CCCC3)c2)c2cc(Br)ccc2N1` [Example 482, N-((1S,2R)-3-(((4S)-6-bromo-2,2-dimethyl-1,2,3,4-tetrahydro-4-quinolinyl)amino)-2-hydroxy-1-(phenylmethyl)propyl)-1′-cyclopentyl-2′-oxo-1′,2′-dihydro-2,3′-bipyridine-5′-carboxamide], no more than 5 µM; in that of `CCCOC[C@H](NC(=O)c1cc(-c2ccccn2)c(=O)n(C2CCCC2)c1)[C@H](O)CN[C@H]1CC2(CCC2)Oc2ccc(CC)cc21` [Example 483, 1′-cyclopentyl-N-((1S,2R)-3-(((4S)-6-ethyl-3,4-dihydrospiro[chromene-2,1′-cyclobutan]-4-yl)amino)-2-hydroxy-1-((propyloxy)methyl)propyl)-2′-oxo-1′,2′-dihydro-2,3′-bipyridine-5′-carboxamide], no more than 5 µM.
For `CCc1ccc2c(c1)[C@@H](NC[C@@H](O)[C@H](Cc1ccccc1)NC(=O)[C@H]1CN(C(=O)N3CCCCC3)CCO1)CC(C)(C)O2` [Example 484, (2R)-N-((1S,2R)-3-(((4S)-6-ethyl-2,2-dimethyl-3,4-dihydro-2H-chromen-4-yl)amino)-2-hydroxy-1-(phenylmethyl)propyl)-4-(1-piperidinylcarbonyl)-2-morpholinecarboxamide], the half-inhibitory concentration (IC50) is no more than 5 µM.
In the case of `CCc1ccc2c(c1)[C@@H](NC[C@@H](O)[C@H](Cc1ccccc1)NC(=O)[C@@H]1CN(C(=O)N3CCCCC3)CCO1)CC(C)(C)O2` [Example 485, (2S)-N-((1S,2R)-3-(((4S)-6-ethyl-2,2-dimethyl-3,4-dihydro-2H-chromen-4-yl)amino)-2-hydroxy-1-(phenylmethyl)propyl)-4-(1-piperidinylcarbonyl)-2-morpholinecarboxamide] it was no more than 5 µM.
Take `CC(C)(C)Cc1ccc2c(c1)[C@H](NC[C@@H](O)[C@H](Cc1ccccc1)NC(=O)c1cc(-c3ccccn3)c(=O)n(C3CCCC3)c1)CC(C)(C)N2` [Example 488, 1′-cyclopentyl-N-((1S,2R)-3-(((4R)-6-(2,2-dimethylpropyl)-2,2-dimethyl-1,2,3,4-tetrahydro-4-quinolinyl)amino)-2-hydroxy-1-(phenylmethyl)propyl)-2′-oxo-1′,2′-dihydro-2,3′-bipyridine-5′-carboxamide]: the half-maximal inhibitory concentration (IC50) was no more than 5 µM.
Then `CC(C)(C)Cc1ccc2c(c1)[C@@H](NC[C@@H](O)[C@H](Cc1ccccc1)NC(=O)c1cc(-c3ccccn3)c(=O)n(C3CCCC3)c1)CC(C)(C)N2` [Example 489, 1′-cyclopentyl-N-((1S,2R)-3-(((4S)-6-(2,2-dimethylpropyl)-2,2-dimethyl-1,2,3,4-tetrahydro-4-quinolinyl)amino)-2-hydroxy-1-(phenylmethyl)propyl)-2′-oxo-1′,2′-dihydro-2,3′-bipyridine-5′-carboxamide], with no more than 5 µM; and `Cc1cccc(C(=O)N2CCO[C@H](C(=O)N[C@@H](Cc3cccc(C#N)c3)[C@H](O)CN[C@H]3CC4(CCC4)Cc4ncc(C)cc43)C2)c1` [Example 490, (2S)-N-((1S,2R)-1-((3-cyanophenyl)methyl)-2-hydroxy-3-(((5′S)-3′-methyl-5′,8′-dihydro-6′H-spiro[cyclobutane-1,7′-quinolin]-5′-yl)amino)propyl)-4-((3-methylphenyl)carbonyl)-2-morpholinecarboxamide], with no more than 5 µM.
In the case of `Cc1cccc(C(=O)N2CCO[C@@H](C(=O)N[C@@H](Cc3cccc(C#N)c3)[C@H](O)CN[C@H]3CC4(CCC4)Cc4ncc(C)cc43)C2)c1` [Example 491, (2R)-N-((1S,2R)-1-((3-cyanophenyl)methyl)-2-hydroxy-3-(((5′S)-3′-methyl-5′,8′-dihydro-6′H-spiro[cyclobutane-1,7′-quinolin]-5′-yl)amino)propyl)-4-((3-methylphenyl)carbonyl)-2-morpholinecarboxamide] it was no more than 5 µM; in that of `Cc1cccc(C(=O)N2CCO[C@H](C(=O)N[C@@H](Cc3cc(F)cc(F)c3)[C@H](O)CN[C@H]3CC4(CCC4)Cc4ncc(C)cc43)C2)c1` [Example 492, (2S)-N-((1S,2R)-1-((3,5-difluorophenyl)methyl)-2-hydroxy-3-(((5′S)-3′-methyl-5′,8′-dihydro-6′H-spiro[cyclobutane-1,7′-quinolin]-5′-yl)amino)propyl)-4-((3-methylphenyl)carbonyl)-2-morpholinecarboxamide], no more than 5 µM.
Consider `Cc1cccc(C(=O)N2CCO[C@@H](C(=O)N[C@@H](Cc3cc(F)cc(F)c3)[C@H](O)CN[C@H]3CC4(CCC4)Cc4ncc(C)cc43)C2)c1` [Example 493, (2R)-N-((1S,2R)-1-((3,5-difluorophenyl)methyl)-2-hydroxy-3-(((5′S)-3′-methyl-5′,8′-dihydro-6′H-spiro[cyclobutane-1,7′-quinolin]-5′-yl)amino)propyl)-4-((3-methylphenyl)carbonyl)-2-morpholinecarboxamide], for which the IC50 is no more than 5 µM.
In the case of `Cc1cccc(C(=O)N2CCO[C@H](C(=O)N[C@@H](Cc3ccccc3)[C@H](O)CN[C@H]3CC4(CCC4)Cc4ncc(C)cc43)C2)c1` [Example 494, (2S)-N-((1S,2R)-2-hydroxy-3-(((5′S)-3′-methyl-5′,8′-dihydro-6′H-spiro[cyclobutane-1,7′-quinolin]-5′-yl)amino)-1-(phenylmethyl)propyl)-4-((3-methylphenyl)carbonyl)-2-morpholinecarboxamide] it was no more than 5 µM; in that of `Cc1cccc(C(=O)N2CCO[C@@H](C(=O)N[C@@H](Cc3ccccc3)[C@H](O)CN[C@H]3CC4(CCC4)Cc4ncc(C)cc43)C2)c1` [Example 495, (2R)-N-((1S,2R)-2-hydroxy-3-(((5′S)-3′-methyl-5′,8′-dihydro-6′H-spiro[cyclobutane-1,7′-quinolin]-5′-yl)amino)-1-(phenylmethyl)propyl)-4-((3-methylphenyl)carbonyl)-2-morpholinecarboxamide], no more than 5 µM; in that of `Cc1cccc(C(=O)N2CCO[C@H](C(=O)N[C@@H](Cc3cccc(C#N)c3)[C@H](O)CN[C@H]3CC(C)(C)Cc4ncc(C)cc43)C2)c1` [Example 496, (2S)-N-((1S,2R)-1-((3-cyanophenyl)methyl)-2-hydroxy-3-(((5S)-3,7,7-trimethyl-5,6,7,8-tetrahydro-5-quinolinyl)amino)propyl)-4-((3-methylphenyl)carbonyl)-2-morpholinecarboxamide], no more than 5 µM.
In the case of `Cc1cccc(C(=O)N2CCO[C@@H](C(=O)N[C@@H](Cc3cccc(C#N)c3)[C@H](O)CN[C@H]3CC(C)(C)Cc4ncc(C)cc43)C2)c1` [Example 497, (2R)-N-((1S,2R)-1-((3-cyanophenyl)methyl)-2-hydroxy-3-(((5S)-3,7,7-trimethyl-5,6,7,8-tetrahydro-5-quinolinyl)amino)propyl)-4-((3-methylphenyl)carbonyl)-2-morpholinecarboxamide] it was no more than 5 µM; in that of `Cc1cccc(C(=O)N2CCO[C@H](C(=O)N[C@@H](Cc3ccccc3)[C@H](O)CN[C@H]3CC(C)(C)Cc4ncc(C)cc43)C2)c1` [Example 498, (2S)-N-((1S,2R)-2-hydroxy-1-(phenylmethyl)-3-(((5S)-3,7,7-trimethyl-5,6,7,8-tetrahydro-5-quino-linyl)amino)propyl)-4-((3-methylphenyl)carbonyl)-2-morpholinecarboxamide], no more than 5 µM.
In the case of `Cc1cccc(C(=O)N2CCO[C@@H](C(=O)N[C@@H](Cc3ccccc3)[C@H](O)CN[C@H]3CC(C)(C)Cc4ncc(C)cc43)C2)c1` [Example 499, (2R)-N-((1S,2R)-2-hydroxy-1-(phenylmethyl)-3-(((5S)-3,7,7-trimethyl-5,6,7,8-tetrahydro-5-quinolinyl)amino)propyl)-4-((3-methylphenyl)carbonyl)-2-morpholinecarboxamide] it was no more than 5 µM.
In the case of `CCc1ccc2c(c1)[C@@H](NC[C@@H](O)[C@H](Cc1csc(C)n1)NC(=O)c1cc(-c3ccccn3)c(=O)n(C3CCCC3)c1)CC1(CCC1)O2` [Example 500, 1′-cyclopentyl-N-((1S,2R)-3-(((4S)-6-ethyl-3,4-dihydrospiro[chromene-2,1′-cyclobutan]-4-yl)amino)-2-hydroxy-1-((2-methyl-1,3-thiazol-4-yl)methyl)propyl)-2′-oxo-1′,2′-dihydro-2,3′-bipyridine-5′-carboxamide], the IC50 was no more than 5 µM.
On to `CC(C)n1cc(C(=O)N[C@@H](Cc2ccccc2)[C@H](O)CN[C@H]2CC(C)(C)Cc3sc(CC(C)(C)C)cc32)cc(-c2ccccn2)c1=O` [Example 501, N-((1S,2R)-3-(((4S)-2-(2,2-dimethylpropyl)-6,6-dimethyl-4,5,6,7-tetrahydro-1-benzothien-4-yl)amino)-2-hydroxy-1-(phenylmethyl)propyl)-1′-(1-methylethyl)-2′-oxo-1′,2′-dihydro-2,3′-bipyridine-5′-carboxamide], for which the IC50 is no more than 5 µM.
